What was measured:
[1] = format: physicochemical
Protocol: An extraction method was developed which gave the maximum recovery of TP. The stability of TP to the extraction methodology was tested by subjecting pure TP to the extraction protocol, virtually 100% recovery was obtained.

[2] = Solubility of α-tocopheryl phosphate; format: physicochemical
[3] = Liver TP level 24 h after a single dose of TP or tocopheryl acetate, quantitated by ESMS; settings: rat, 24 h after administration

In the case of α-tocopheryl phosphate [TP], the resistance to hydrolysis ([1]; alkaline and acid hydrolysis conditions of standard α-tocopherol extraction procedures) is reported as “resistant to all of the alkaline and acid hydrolysis conditions”, the resistance to oxidation ([1]; conditions of the standard colorimetric α-tocopherol analysis) is reported as “resistant to oxidation” and the “cleavage of the phosphate bond” value ([1]; refluxing under strongly alkaline or acidic conditions in excess of 24 hours) is reported as “does not lead to any cleavage of the phosphate bond”. The solubility in water ([2]; high pH) was “soluble”, the “solubility in organic solvents” value ([2]; low pH) was “soluble” and the “liver TP” value ([3]; i.v., single dose 3 mg/kg) was 17 ug ug/gm. The “liver TP” value ([3]; i.v., single dose 10 mg/kg) was 24 ug ug/gm, the “liver TP” value ([3]; i.v., single dose 30 mg/kg) was 28 ug ug/gm and the “liver TP” value ([3]; i.v., single dose 100 mg/kg) was 27 ug ug/gm. The “liver TP” value ([3]; oral, single dose 10 mg/kg) was 19.18 ug ug/gm and the “liver TP” value ([3]; oral, single dose 30 mg/kg) was 18.35 ug ug/gm.
